# Data published in ChEMBL document CHEMBL3727361, “Nitrogen bicyclic compounds as inhibitors for Scyl1 and Grk5” (2014).
# Tested on: Beta-TC6
# Experiment: Increase in insulin release in mouse BetaTC6 cells assessed as relative insulin release activity at 10 uM incubated for 2 to 4 hrs by FRET based HTRF assay relative to sunitinib
# Assay type: functional
row,SMILES,Activity
1,COc1cc(OC)cc(-c2cn3c(-c4ccsc4)cnc3cn2)c1,20%
2,c1ccc(-c2ccc3ncc(-c4ccc5c(c4)OCO5)n3n2)cc1,20%
3,CN(C)c1ccc(-c2cnc3cnc(-c4ccc(C(=O)NCCO)cc4)cn23)cc1,50%
4,COc1ccc(-c2nnc3ccc(-c4cccc(F)c4)cn23)cc1OC,>=100%
5,CC(=O)c1ccc(-c2cnc3cccnn23)cc1,10%
6,CN(C)CCCNC(=O)c1ccc(-c2cn3c(-c4ccc5c(ccn5C)c4)cnc3cn2)cc1,20%
7,CN(C)CCNC(=O)c1ccc(-c2cn3c(-c4ccc(N(C)C)cc4)cnc3cn2)cc1,50%
8,CN(C)CCCOc1ccc(-c2cn3c(-c4cccc(N(C)C)c4)cnc3cn2)cn1,20%
9,Cc1ccccc1-c1nnc2ccc(-c3ccc(C(N)=O)cc3)cn12,20%
10,COc1cc(-c2cn3c(-c4ccc5c(ccn5C)c4)cnc3cn2)ccc1O,20%
11,Cn1cc(-c2cnc3cnc(-c4cc5ccccc5s4)cn23)cn1,20%
12,N#Cc1cccc(-c2cnc3cccnn23)c1,20%
13,O=C(c1ccc(-c2ccc3nnc(-c4cccc(C(F)(F)F)c4)n3c2)cc1)N1CCOCC1,20%
14,OCc1cccc(-c2cnc3cnc(-c4cccs4)cn23)c1,20%
15,Fc1cccc(-c2cn3c(-c4ccccc4)cnc3cn2)c1,20%
16,N#Cc1ccc(-c2cnc3cnc(-c4ccc(Cl)cc4)cn23)cc1,50%
17,CN(C)c1cccc(-c2cnc3cnc(-c4ccc(CO)cc4)cn23)c1,20%
18,c1ccc(Cn2cc(-c3cn4c(-c5ccc6c(c5)OCO6)cnc4cn3)cn2)cc1,50%
19,Nc1cccc(-c2ccc3ncc(-c4cccc(Cl)c4)n3n2)c1,20%
20,COc1cccc(-c2cn3c(-c4cccc(O)c4)cnc3cn2)c1F,20%
21,CN(C)CCNC(=O)c1cccc(-c2ccc3nnc(-c4ccc5nccnc5c4)n3c2)c1,>=100%
22,COc1ccccc1-c1cn2c(NC(=O)c3ccccc3)cnc2cn1,20%

row,SMILES,Activity
1,CN(C)c1ccc(-c2ccc3ncc(-c4ccc(CO)cc4)n3n2)cc1,50%
2,Oc1ccc(-c2cn3c(-c4cccs4)cnc3cn2)cc1,50%
3,COc1ccc(-c2cnc3ccc(NCCCO)nn23)cc1,10%
4,c1coc(-c2cn3c(-c4ccsc4)cnc3cn2)c1,20%
5,COc1cc(-c2nnc3ccc(-c4ccccc4C)cn23)ccc1O,50%
6,COc1ccc(-c2cn3c(-c4ccc(OC)nc4)cnc3cn2)cn1,20%
7,CN(C)c1ccc(-c2cnc3cnc(-c4ccc(C(=O)N5CCOCC5)cc4)cn23)cc1,20%
8,Fc1cccc(-c2cn3c(-c4ccc5c(c4)OCO5)cnc3cn2)c1,50%
9,CC(=O)c1cccc(-c2cn3c(NC(=O)CC4CC4)cnc3cn2)c1,20%
10,Nc1cccc(-c2cn3c(-c4cccc(F)c4)cnc3cn2)c1,20%
11,Cc1cc(-c2cn3c(-c4ccc5ncccc5c4)cnc3cn2)cc(C)c1O,20%
12,c1csc(-c2cn3c(-c4ccc5c(c4)OCO5)cnc3cn2)c1,50%
13,O=C(Nc1cnc2cnc(-c3ccsc3)cn12)c1cccs1,20%
14,N#Cc1ccc(-c2ccc3nnc(-c4cccc(O)c4)n3c2)cc1,50%
15,O=C(NCCO)c1cccc(-c2cn3c(-c4cccs4)cnc3cn2)c1,20%
16,C(=C\c1cn2c(-c3cccs3)cnc2cn1)/c1ccccc1,20%
17,COc1ccc(-c2cnc3ccc(NCCCO)nn23)c(OC)c1,10%
18,Cn1ccc2cc(-c3cn4c(-c5ccc6ncccc6c5)cnc4cn3)ccc21,>=100%
19,COc1ccc(-c2cnc3ccc(NCc4cccs4)nn23)c(OC)c1,20%
20,COc1ccccc1-c1ccc2ncc(-c3ccc(F)c(Cl)c3)n2n1,20%
21,Nc1cccc(-c2cnc3ccc(NC4CCOCC4)nn23)c1,20%
22,N#Cc1ccc(-c2cnc3cnc(-c4cccs4)cn23)cc1,20%

row,SMILES,Activity
1,O=C(Nc1cnc2cnc(-c3cnn(Cc4ccccc4)c3)cn12)C1CCC1,20%
2,CC(=O)c1cccc(-c2cnc3cnc(-c4cccnc4)cn23)c1,20%
3,Cn1ccc2cc(-c3cnc4cnc(-c5cccc(C(N)=O)c5)cn34)ccc21,20%
4,CNc1ccc2ncc(/C=C\CCCO)n2n1,10%
5,CNc1ccc2ncc(-c3ccccc3O)n2n1,20%
6,N#Cc1ccc(-c2cnc3cnc(-c4ccsc4)cn23)cc1,20%
7,Fc1cccc(-c2cnc3cnc(-c4ccc5c(c4)OCO5)cn23)c1,20%
8,COc1cc(-c2cnc3ccc(-c4cccc(OC(F)(F)F)c4)nn23)ccc1O,10%
9,c1csc(-c2cn3c(-c4cccs4)cnc3cn2)c1,50%
10,CS(=O)(=O)Nc1cccc(-c2cn3c(-c4cccs4)cnc3cn2)c1,20%
11,Oc1cccc(-c2nnc3ccc(-c4cccc5ncccc45)cn23)c1,20%
12,Oc1cccc(-c2cnc3cnc(-c4cccs4)cn23)c1,20%
13,Clc1ccccc1-c1ccc2ncc(-c3cccs3)n2n1,10%
14,COc1ccc(-c2ccc3ncc(-c4cccc(Cl)c4)n3n2)c(C)c1,10%
15,CN(C)C(=O)c1cccc(-c2cn3c(-c4ccc(N(C)C)cc4)cnc3cn2)c1,20%
16,COc1cc(-c2cnc3cnc(-c4ccc(N5CCN(C)CC5)nc4)cn23)cc(OC)c1OC,20%
17,COc1cc(OC)cc(-c2cn3c(-c4cccc(O)c4)cnc3cn2)c1,20%
18,CS(=O)(=O)c1cccc(-c2ccc3nnc(-c4ccccn4)n3c2)c1,20%
19,COc1cc(-c2cnc3cnc(-c4ccc(N)nc4)cn23)ccc1O,20%
20,c1csc(-c2cnc3cnc(-c4ccncc4)cn23)c1,20%
21,COc1cc(-c2cn3c(-c4ccc5ncccc5c4)cnc3cn2)cc(OC)c1OC,20%
22,COCCNc1ccc2ncc(-c3ccc(C(=O)Nc4ccc(OC)cc4)cc3)n2n1,20%

row,SMILES,Activity
1,COc1cc(C#Cc2ccc3nnc(-c4ccc(OCCCN(C)C)cc4)n3c2)cc(OC)c1,20%
2,c1ccc(Oc2cccc(-c3ccc4nnc(-c5ccncc5)n4c3)c2)cc1,20%
3,CCOc1cccc(-c2cn3c(-c4ccc(O)c(OC)c4)cnc3cn2)c1,50%
4,Fc1cccc(-c2cnc3cnc(-c4ccc(Cl)cc4)cn23)c1,20%
5,COc1cccc(CC(=O)Nc2cnc3cnc(-c4ccccc4CN(C)C)cn23)c1,20%
6,Cc1cccc(-c2cn3c(-c4ccc(CCC(=O)O)cc4)cnc3cn2)c1C,50%
7,COc1ccccc1-c1ccc2ncc(-c3cccc(OC(F)(F)F)c3)n2n1,10%
8,O=C(Nc1cnc2cnc(-c3ccc4ccccc4c3)cn12)C1CCOC1 (stereo not given),10%
9,COc1cc(-c2ccc3nnc(-c4cccc(C(F)(F)F)c4)n3c2)cc(OC)c1OC,50%
10,CSc1ccc(-c2cn3c(-c4cccc(CO)c4)cnc3cn2)cc1,20%
11,CCC(CO)Nc1ccc2ncc(-c3ccccc3Cl)n2n1 (stereo not given),10%
12,CCOc1cccc(-c2cn3c(-c4ccc5c(c4)OCO5)cnc3cn2)c1,50%
13,COc1cc(OC)cc(-c2cn3c(-c4cccs4)cnc3cn2)c1,20%
14,CN1CCN(C(=O)c2cccc(-c3cnc4cnc(-c5ccc(CNc6ccccc6)cc5)cn34)c2)CC1,10%
15,CCOc1cccc(-c2cn3c(-c4cccc(CO)c4)cnc3cn2)c1,20%
16,COc1cncc(-c2cnc3ccc(Cc4ccc(F)cc4)nn23)c1,20%
17,COc1cccc(CC(=O)Nc2cnc3cnc(-c4ccc5[nH]ccc5c4)cn23)c1,10%
18,Cn1cc(-c2cn3c(-c4ccc(O)cc4)cnc3cn2)cn1,20%
19,COc1cc(-c2cnc3cnc(-c4ccc5c(c4)OCO5)cn23)ccc1O,20%
20,CN(C)c1cccc(-c2ccc3nnc(-c4cscn4)n3c2)c1,50%
21,C(#Cc1ccccn1)c1ccc2nnc(-c3ccccc3)n2c1,50%
22,CN1CCN(C(=O)c2cccc(-c3ccc4nnc(-c5ccc6nccnc6c5)n4c3)c2)CC1,20%

row,SMILES,Activity
1,O=C(NC1CC1)c1ccc(-c2cn3c(-c4ccc(O)cc4)cnc3cn2)cc1,20%
2,Clc1cccc(-c2nnc3ccc(-c4ccoc4)cn23)c1,50%
3,Clc1cccc(-c2nnc3ccc(-c4cccnc4)cn23)c1,50%
4,CN(C)CCCNC(=O)c1ccc(-c2ccc3nnc(-c4cccc(C(F)(F)F)c4)n3c2)cc1,20%
5,Nc1ccc(-c2cn3c(-c4ccc5c(c4)OCO5)cnc3cn2)cn1,10%
6,FC(F)(F)Oc1cccc(-c2cnc3cnc(-c4cccnc4)cn23)c1,20%
7,Oc1cccc(-c2cnc3cnc(/C=C/c4ccccc4)cn23)c1,20%
8,CN(C)c1ccc(-c2ccc3nnc(-c4cccnc4)n3c2)cc1,50%
9,COc1cc(-c2cnc3cnc(-c4cnn(C)c4)cn23)ccc1O,50%
10,CN(C)c1ccc(-c2cnc3cnc(-c4ccc(CO)cc4)cn23)cc1,50%
11,CS(=O)(=O)Nc1ccc(-c2cnc3cccnn23)cc1,10%
12,Cc1cccc(-c2cnc3cccnn23)c1,10%
13,COc1cc(OC)cc(-c2cnc3cnc(-c4cccc(OC(C)C)c4)cn23)c1,20%
14,OCc1cccc(-c2cnc3cnc(-c4ccccc4)cn23)c1,20%
15,COc1cc(-c2ccc3ncc(-c4ccc(F)c(Cl)c4)n3n2)cc(OC)c1OC,10%
16,CN(C)C(=O)c1ccc(-c2cnc3cnc(-c4ccc5c(ccn5C)c4)cn23)cc1,20%
17,O=C(NCCO)c1ccc(-c2cn3c(-c4cccs4)cnc3cn2)cc1,10%
18,O=C(O)CCc1ccc(-c2cnc3cnc(-c4cccs4)cn23)cc1,20%
19,Nc1cccc(-c2cn3c(NC(=O)Cc4ccc(F)c(F)c4)cnc3cn2)c1,10%
20,COc1ccc(-c2cnc3cnc(-c4ccc(N)nc4)cn23)cc1,20%
21,COc1ccc(-c2cn3c(-c4cccc(O)c4)cnc3cn2)cn1,20%
22,COc1ccc(-c2ccc3nnc(-c4ccoc4)n3c2)cc1,50%
